The target in assay [1] is T1, Peroxisome proliferator-activated receptor gamma (Homo sapiens, UniProt P37231).
T1 sequence (P37231 whole entry): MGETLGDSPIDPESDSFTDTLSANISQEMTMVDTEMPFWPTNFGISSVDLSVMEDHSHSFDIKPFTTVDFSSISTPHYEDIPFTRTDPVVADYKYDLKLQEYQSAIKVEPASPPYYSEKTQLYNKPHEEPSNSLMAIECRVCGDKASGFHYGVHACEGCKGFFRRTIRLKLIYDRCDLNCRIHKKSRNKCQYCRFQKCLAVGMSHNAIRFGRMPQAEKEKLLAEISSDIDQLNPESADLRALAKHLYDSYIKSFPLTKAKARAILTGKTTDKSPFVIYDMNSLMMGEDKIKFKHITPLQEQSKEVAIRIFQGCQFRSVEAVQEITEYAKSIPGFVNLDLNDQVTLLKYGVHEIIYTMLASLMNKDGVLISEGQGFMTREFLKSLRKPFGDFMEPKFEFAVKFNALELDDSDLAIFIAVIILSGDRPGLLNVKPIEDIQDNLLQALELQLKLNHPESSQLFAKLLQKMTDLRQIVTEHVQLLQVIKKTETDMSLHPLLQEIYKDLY
The format is functional.

The target in a further assay is Histamine H1 receptor (Homo sapiens, UniProt P35367). The assay is classed as functional, cell-based.
Histamine H1 receptor, sequence (P35367 whole entry): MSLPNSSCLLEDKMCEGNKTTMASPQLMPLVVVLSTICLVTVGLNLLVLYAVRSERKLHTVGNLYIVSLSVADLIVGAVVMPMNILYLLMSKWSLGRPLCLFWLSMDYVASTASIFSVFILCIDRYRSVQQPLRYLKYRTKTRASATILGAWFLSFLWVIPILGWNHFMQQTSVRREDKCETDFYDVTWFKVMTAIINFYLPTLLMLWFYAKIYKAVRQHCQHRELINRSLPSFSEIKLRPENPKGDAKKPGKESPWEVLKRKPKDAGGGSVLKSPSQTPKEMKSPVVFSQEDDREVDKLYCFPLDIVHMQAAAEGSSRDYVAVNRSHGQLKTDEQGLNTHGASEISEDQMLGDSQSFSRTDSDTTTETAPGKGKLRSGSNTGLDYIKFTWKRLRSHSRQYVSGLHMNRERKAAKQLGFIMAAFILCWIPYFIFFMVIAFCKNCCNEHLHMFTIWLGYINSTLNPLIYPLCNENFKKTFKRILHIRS
Assay [2] deals with T1, Peroxisome proliferator-activated receptor gamma. The assay is classed as functional. This is another data set of the same source.
Assay [3] addresses Gamma-aminobutyric acid receptor subunit alpha-1/alpha-2/beta-2/gamma-2 (Homo sapiens, UniProt P14867+P18507+P47869+P47870). The format is functional, cell-based.
Note: assay procedure not described here.

Gamma-aminobutyric acid receptor subunit alpha-1/alpha-2/beta-2/gamma-2, sequence (P14867 whole entry): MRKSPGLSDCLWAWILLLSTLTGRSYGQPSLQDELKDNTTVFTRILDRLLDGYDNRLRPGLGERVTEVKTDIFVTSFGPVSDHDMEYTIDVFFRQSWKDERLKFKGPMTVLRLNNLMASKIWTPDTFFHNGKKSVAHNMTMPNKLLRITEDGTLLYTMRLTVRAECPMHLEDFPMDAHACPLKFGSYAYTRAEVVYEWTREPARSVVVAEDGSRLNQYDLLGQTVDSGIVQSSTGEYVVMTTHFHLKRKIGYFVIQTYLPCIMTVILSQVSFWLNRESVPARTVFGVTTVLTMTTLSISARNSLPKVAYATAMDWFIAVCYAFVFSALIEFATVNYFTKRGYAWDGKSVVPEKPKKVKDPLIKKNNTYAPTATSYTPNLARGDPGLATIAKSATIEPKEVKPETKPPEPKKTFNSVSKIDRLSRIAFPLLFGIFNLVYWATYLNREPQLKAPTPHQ
Gamma-aminobutyric acid receptor subunit alpha-1/alpha-2/beta-2/gamma-2, sequence (P47870 whole entry): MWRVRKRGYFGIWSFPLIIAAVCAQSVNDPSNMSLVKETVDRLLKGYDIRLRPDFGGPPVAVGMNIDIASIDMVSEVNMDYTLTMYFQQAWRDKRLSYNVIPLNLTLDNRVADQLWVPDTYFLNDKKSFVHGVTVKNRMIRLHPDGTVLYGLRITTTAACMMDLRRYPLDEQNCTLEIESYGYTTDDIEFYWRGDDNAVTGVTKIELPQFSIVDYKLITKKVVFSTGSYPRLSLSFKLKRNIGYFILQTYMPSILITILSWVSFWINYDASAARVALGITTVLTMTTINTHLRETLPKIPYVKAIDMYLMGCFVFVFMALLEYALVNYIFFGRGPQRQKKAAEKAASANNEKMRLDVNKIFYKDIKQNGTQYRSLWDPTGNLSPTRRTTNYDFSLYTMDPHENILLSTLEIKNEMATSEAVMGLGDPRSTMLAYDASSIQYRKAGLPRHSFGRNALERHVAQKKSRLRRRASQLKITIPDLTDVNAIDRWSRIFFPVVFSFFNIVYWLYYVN
Gamma-aminobutyric acid receptor subunit alpha-1/alpha-2/beta-2/gamma-2, sequence (P18507 whole entry): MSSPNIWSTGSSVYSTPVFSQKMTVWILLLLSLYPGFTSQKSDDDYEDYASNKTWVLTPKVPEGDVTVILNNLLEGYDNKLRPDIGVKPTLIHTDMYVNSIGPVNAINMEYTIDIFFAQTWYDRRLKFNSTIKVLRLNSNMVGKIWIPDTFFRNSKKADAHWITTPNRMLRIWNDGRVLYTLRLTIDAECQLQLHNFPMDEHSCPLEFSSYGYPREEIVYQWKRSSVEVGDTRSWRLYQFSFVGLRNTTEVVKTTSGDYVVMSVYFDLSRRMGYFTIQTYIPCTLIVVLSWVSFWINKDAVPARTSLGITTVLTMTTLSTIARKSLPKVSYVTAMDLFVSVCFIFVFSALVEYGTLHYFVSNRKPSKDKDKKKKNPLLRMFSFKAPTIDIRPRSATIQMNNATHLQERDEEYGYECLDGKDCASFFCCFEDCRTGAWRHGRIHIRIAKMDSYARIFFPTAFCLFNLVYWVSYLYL
Gamma-aminobutyric acid receptor subunit alpha-1/alpha-2/beta-2/gamma-2, sequence (P47869 whole entry): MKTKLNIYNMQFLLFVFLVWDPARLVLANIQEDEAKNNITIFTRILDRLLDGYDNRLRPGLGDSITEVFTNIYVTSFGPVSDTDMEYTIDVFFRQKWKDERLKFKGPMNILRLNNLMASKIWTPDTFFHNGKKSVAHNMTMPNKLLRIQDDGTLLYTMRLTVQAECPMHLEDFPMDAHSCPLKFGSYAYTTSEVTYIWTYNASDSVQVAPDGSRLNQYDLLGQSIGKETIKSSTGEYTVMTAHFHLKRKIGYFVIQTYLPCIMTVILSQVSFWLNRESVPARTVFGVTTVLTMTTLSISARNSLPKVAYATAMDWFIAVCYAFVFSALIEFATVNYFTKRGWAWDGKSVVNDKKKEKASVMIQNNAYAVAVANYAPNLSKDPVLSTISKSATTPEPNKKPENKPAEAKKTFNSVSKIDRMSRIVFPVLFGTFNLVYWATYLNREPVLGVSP

On to `C[C@]12CC[C@@H]3c4ccc(O)cc4C[C@@H](CCCCCCCCC[S+]([O-])CCCC(F)(F)C(F)(F)F)[C@H]3[C@@H]1CC[C@@H]2O` (some centres undefined) [FULVESTRANT], for which the AC50 (usually the concentration at which the activity in the assay is half-maximal) in assay [1] was > 30 µM; at Histamine H1 receptor, > 30 µM; in assay [2] it was 14 µM; in assay [3], > 30 µM.

These data come from ChEMBL document CHEMBL5291721, “A preclinical secondary pharmacology resource illuminates target-adverse drug reaction associations of marketed drugs” (Nat Commun, 2023).
